Several values for one entry are separate records, joined by “and”; a condition that tells them apart may be missing. Identical values can stand only once. Toxic doses and inconclusive results are not listed.
Test system: L1210 leukemia ip in BDF1 mice, survival T/C
Assay: NCI In Vivo Anticancer Drug Screen. Data for tumor model L1210 Leukemia (intraperitoneal) in B6D2F1 (BDF1) mice
Conditions: endpoint: mean survival time, higher = longer survival
Outline: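 Tumor was transplanted into mice, which were then dosed with test compound or vehicle alone. Survival was recorded for each group, and the treated figure was expressed relative to the control figure.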

[1] = dose: 100.0 mg/kg/injection, schedule: Q01DX009 (ip), vehicle: saline with Tween-80
[2] = dose: 100.0 mg/kg/injection, schedule: Q04DX003 (ip), vehicle: saline with Tween-80
[3] = dose: 200.0 mg/kg/injection, schedule: Q01DX009 (ip), vehicle: saline with Tween-80
[4] = dose: 200.0 mg/kg/injection, schedule: Q04DX003 (ip), vehicle: saline with Tween-80
[5] = dose: 400.0 mg/kg/injection, schedule: Q01DX009 (ip), vehicle: saline with Tween-80
[6] = dose: 100.0 mg/kg/injection, schedule: Q01DX001 (ip), vehicle: saline with Tween-80
[7] = dose: 200.0 mg/kg/injection, schedule: Q01DX001 (ip), vehicle: saline with Tween-80
[8] = dose: 75.0 mg/kg/injection, schedule: Q01DX001 (ip), vehicle: saline

Compound: COC(OC)c1nc(NC(C)=O)[nH]c(=O)c1Cc1ccc(N)cc1
- T/C [1]: 96 % of control
- T/C [2]: 94 % of control
- T/C [3]: 89 % of control
- T/C [4]: 96 % of control
- T/C [5]: 97 % of control
- T/C (dose: 400.0 mg/kg/injection, schedule: Q04DX003 (ip), vehicle: saline with Tween-80): 110 % of control

Compound: O=Cc1[nH]c(=O)[nH]c(=O)c1Br
- T/C (dose: 50.0 mg/kg/injection, schedule: Q01DX009 (ip), vehicle: saline with Tween-80): 94 % of control
- T/C [6]: 112 % of control
- T/C [1]: 98 % of control
- T/C [7]: 116 % of control

Compound: CC(C)=NNC(=O)NO
- T/C [8]: 102 % of control

Compound: COC(=O)/C=C(\C)C(C)=Nc1ccccc1
- T/C [2]: 106 % of control
- T/C [4]: 106 % of control

Compound: Cc1cnc(Cl)nc1N1CC1
- T/C (dose: 1.0 mg/kg/injection, schedule: Q01DX Z (ip), vehicle: methylcellulose (MC)): 91 % of control

Compound: O=C(Nc1ccc(C2=NCCN2)cc1)c1cc(C(=O)Nc2ccc(C3=NCCN3)cc2)cc([N+](=O)[O-])c1
- T/C (dose: 111.0 mg/kg/injection, schedule: Q01DX Z (ip), vehicle: methylcellulose (MC)): 100 % of control
- T/C (dose: 167.0 mg/kg/injection, schedule: Q01DX Z (ip), vehicle: methylcellulose (MC)): 104 % of control
- T/C (dose: 250.0 mg/kg/injection, schedule: Q01DX Z (ip), vehicle: methylcellulose (MC)): 105 % of control and 207 % of control
- T/C (dose: 375.0 mg/kg/injection, schedule: Q01DX Z (ip), vehicle: methylcellulose (MC)): 168 % of control
- T/C (dose: 512.0 mg/kg/injection, schedule: Q01DX Z (ip), vehicle: methylcellulose (MC)): 234 % of control
- T/C (dose: 768.0 mg/kg/injection, schedule: Q01DX Z (ip), vehicle: methylcellulose (MC)): 268 % of control

Compound: CCOC(=O)c1[nH]c(-c2ccc(OC)cc2)c(C(=O)OCC)c1-c1ccccc1
- T/C (dose: 100.0 mg/kg/injection, schedule: Q01DX001 (ip), vehicle: Klucel (hydroxypropylcellulose) (HPC)): 88 % of control
- T/C (dose: 200.0 mg/kg/injection, schedule: Q01DX001 (ip), vehicle: Klucel (hydroxypropylcellulose) (HPC)): 108 % of control
- T/C (dose: 400.0 mg/kg/injection, schedule: Q01DX001 (ip), vehicle: Klucel (hydroxypropylcellulose) (HPC)): 114 % of control

Compound: CCOC(=O)C(NC=O)(C(=O)OCC)C(C)c1c[nH]c2ccccc12 (configuration not stated)
- T/C [6]: 93 % of control
- T/C [1]: 102 % of control
- T/C [7]: 94 % of control
- T/C [3]: 98 % of control
- T/C (dose: 400.0 mg/kg/injection, schedule: Q01DX001 (ip), vehicle: saline with Tween-80): 100 % of control
- T/C [5]: 94 % of control

Compound: C=C(C)CCC1C(=O)N(c2ccccc2)N(c2ccccc2)C1=O
- T/C (dose: 25.0 mg/kg/injection, schedule: Q01DX009 (ip), vehicle: Klucel (hydroxypropylcellulose) (HPC)): 103 % of control
- T/C (dose: 50.0 mg/kg/injection, schedule: Q01DX009 (ip), vehicle: Klucel (hydroxypropylcellulose) (HPC)): 95 % of control
- T/C (dose: 100.0 mg/kg/injection, schedule: Q01DX009 (ip), vehicle: Klucel (hydroxypropylcellulose) (HPC)): 100 % of control

Compound: C[N+](C)(CCOC(=O)C1C2CC3OC(=O)C1C3C2)Cc1ccccc1 (configuration not stated)
- T/C (dose: 100.0 mg/kg/injection, schedule: Q04DX003 (ip), vehicle: saline): 101 % of control

Compound: COc1ccc2c(c1O)C1(CCN(C)C)CC(=O)CCC1C=C2 (configuration not stated)
- T/C [8]: 96 % of control
- T/C (dose: 150.0 mg/kg/injection, schedule: Q01DX001 (ip), vehicle: saline): 100 % of control
- T/C (dose: 300.0 mg/kg/injection, schedule: Q01DX001 (ip), vehicle: saline): 89 % of control

Compound: CCCCN=C(NCCCC)Oc1ccccc1
- T/C (dose: 26.6 mg/kg/injection, schedule: Q01DX Z (ip), vehicle: methylcellulose (MC)): 104 % of control
- T/C (dose: 40.0 mg/kg/injection, schedule: Q01DX Z (ip), vehicle: methylcellulose (MC)): 102 % of control
- T/C (dose: 60.0 mg/kg/injection, schedule: Q01DX Z (ip), vehicle: methylcellulose (MC)): 102 % of control

Compound: Cc1ncc(CO)c(/C=N\OCc2cccc(Cl)c2)c1O
- T/C (dose: 12.5 mg/kg/injection, schedule: Q01DX009 (ip), vehicle: saline): 100 % of control
- T/C (dose: 25.0 mg/kg/injection, schedule: Q01DX009 (ip), vehicle: saline): 100 % of control

Compound: CC1C(=O)C(C)C(C(=O)O)C1C (configuration not stated)
- T/C (dose: 100.0 mg/kg/injection, schedule: Q04DX002 (ip), vehicle: Klucel (hydroxypropylcellulose) (HPC)): 100 % of control
- T/C (dose: 200.0 mg/kg/injection, schedule: Q04DX002 (ip), vehicle: Klucel (hydroxypropylcellulose) (HPC)): 107 % of control
- T/C (dose: 400.0 mg/kg/injection, schedule: Q04DX002 (ip), vehicle: Klucel (hydroxypropylcellulose) (HPC)): 93 % of control

Compound: COc1ccc(C2NC(=O)CCC2[N+](=O)[O-])cc1OC (configuration not stated)
- T/C (dose: 100.0 mg/kg/injection, schedule: Q04DX002 (ip), vehicle: saline with Tween-80): 91 % of control
- T/C (dose: 200.0 mg/kg/injection, schedule: Q04DX002 (ip), vehicle: saline with Tween-80): 91 % of control
- T/C (dose: 400.0 mg/kg/injection, schedule: Q04DX002 (ip), vehicle: saline with Tween-80): 94 % of control

Source: PubChem BioAssay AID248 (DTP/NCI, 2004)
